Assay results published in ChEMBL document CHEMBL5107998, “Structure-Activity relationship of 1-(Furan-2ylmethyl)Pyrrolidine-Based Stimulation-2 (ST2) inhibitors for treating graft versus host disease” (Bioorg Med Chem, 2022).
The source made the active and inactive calls. The calls are words filed in the database; no cut-off is given here.

Tests used:
[1] = Inhibition of ST2/IL-33 (unknown origin) interaction incubated for 1 hr by AlphaLISA assay; parameters: species or system Homo sapiens
[2] = Inhibition of ST2/IL-33 (unknown origin) interaction in HEK-Blue IL-33 cells assessed as reduction in NF-kapaB activation by measuring SEAP reporter level incubated for 20 hrs by QUANTI-Blue reagent based assay; type: cell-based; conditions: Homo sapiens, HEK-Blue IL-33, 20 h
[3] = Metabolic stability in pooled CD-1 mouse liver microsomes assessed as half life at 1 uM incubated for 60 mins in presence of NADPH by LC-MS/MS analysis; type: ADME, Microsome
[4] = Metabolic stability in pooled human liver microsomes assessed as half life at 1 uM incubated for 60 mins in presence of NADPH by LC-MS/MS analysis; type: ADME, Microsome
[5] = Half life in CD-1 mouse at 40 mg/kg, ip measured for 7 hrs by LC-MS/MS analysis; type: ADME, organism-based; conditions: in vivo
[6] = Reduction in expansion of C57BL/6 mouse tolerogenic CD4-positive […] regulatory T cells at 1 to 10 uM incubated for 7 days in presence of T cell-depleted and irradiated splenocytes from allogeneic C3H.SW mouse by mixed lymphocyte reaction assay relative to control; type: functional; parameters: scale not given: the % may be the effect or the level left; conditions: dose 1-10 µM, time 7 day
[7] = Cytotoxicity against HEK-Blue IL-33 cells assessed as reduction in cell viability at upto 333 uM incubated for 20 hrs by CellTiter 96 aqueous one solution cell proliferation assay; type: toxicity, cell-based; conditions: human, hek-blue il-33, 20 h
CD4+ve Th = test: Inhibition of cell proliferation in C57BL/6 mouse spleen CD4-positive T cells at 1 to 10 uM incubated for 7 days in presence of T cell-depleted and irradiated splenocytes from allogeneic C3H.SW mouse by mixed lymphocyte reaction assay; type: functional, cell-based; conditions: dose 1-10 µM, time 7.0 day
CD8-positive T cell = test: Inhibition of cell proliferation in C57BL/6 mouse spleen CD8-positive T cells at 1 to 10 uM incubated for 7 days in presence of T cell-depleted and irradiated splenocytes from allogeneic C3H.SW mouse by mixed lymphocyte reaction assay; type: functional, cell-based; conditions: dose 1-10 µM, time 7.0 day
T-cell = test: Induction of expansion of C57BL/6 mouse tolerogenic CD4-positive […] regulatory T cells incubated for 7 days in presence of T cell-depleted and irradiated splenocytes from allogeneic C3H.SW mouse by mixed lymphocyte reaction assay; type: functional, cell-based; conditions: dose 1-10 µM, time 7.0 day, DDE = dose-dependent effect

Row | Compound | IC50 [1] [µM] | IC50 [2] [µM] | other results
1 | COc1ccc(-c2ccc(CN3CCC[C@H]3c3ccc(N(C)C)cc3)o2)c([N+](=O)[O-])c1 | 6.6 | 30.6 | –
2 | COC(=O)c1ccc(C2CCCN2Cc2ccc(-c3ccccc3[N+](=O)[O-])o2)cc1 (centres undefined) | 20.6 | – | –
3 | Cc1cc([N+](=O)[O-])ccc1-c1ccc(CN2CCCC2c2ccc(N(C)C)cc2)o1 (centres undefined) | 7.73 | 42.5 | half-life at 1 µM [3]: 3.64 min; half-life at 1 µM [4]: 13.7 min; t1/2 [5]: 1.54 h
4 | COc1ccc(C2CCCN2Cc2ccc(-c3cccc([N+](=O)[O-])c3)o2)cc1 (centres undefined) | 35.4 | – | –
5 | O=C(O)c1ccc(C2CCCN2Cc2ccc(-c3ccccc3[N+](=O)[O-])o2)cc1 (centres undefined) | 80.9 | – | Activity [6]: 10%
6 | O=[N+]([O-])c1ccccc1-c1ccc(CN2CCCC2c2cccc(N3CCCCC3)c2)o1 (centres undefined) | 7.14 | – | –
7 | O=[N+]([O-])c1ccccc1-c1ccc(CN2CCCC2c2ccccc2)o1 (centres undefined) | 97.6 | – | –
8 | O=[N+]([O-])c1ccccc1-c1ccc(CN2CCCC2c2ccc3c(c2)OCCO3)o1 (centres undefined) | 29.4 | – | –
9 | O=[N+]([O-])c1ccccc1-c1ccc(CN2CCCC2c2ccc(N3CCCC3)cc2)o1 (centres undefined) | 12.9 | 62 | Activity [7]: Non-Toxic; half-life at 1 µM [3]: 2.67 min; half-life at 1 µM [4]: 10.1 min
10 | COc1ccccc1C1CCCN1Cc1ccc(-c2ccccc2[N+](=O)[O-])o1 (centres undefined) | 23.4 | – | –
11 | COc1ccc(C2CCCN2Cc2ccc(-c3ccccc3F)o2)cc1 (centres undefined) | 115 | – | –
12 | CN(C)c1ccc(C2CCCN2Cc2ccc(-c3ccccc3[N+](=O)[O-])o2)cc1 (centres undefined) | 19.6 | 33.3 | Activity [7]: Non-Toxic; half-life at 1 µM [3]: 0.95 min; half-life at 1 µM [4]: 2.54 min; t1/2 [5]: 3.74 h; inhibition (CD4+ve Th): Active; inhibition (CD8-positive T cell): Active; Activity (T-cell): Dde
13 | Cc1ccc([N+](=O)[O-])c(-c2ccc(CN3CCCC3c3ccc(N(C)C)cc3)o2)c1 (centres undefined) | 8.06 | 39.1 | Activity [7]: Non-Toxic; half-life at 1 µM [3]: 0.89 min
14 | COc1ccc(C2CCCN2Cc2ccc(-c3ccccc3C#N)o2)cc1 (centres undefined) | 116 | – | –
15 | COc1ccc(C2CCCN2Cc2ccc(-c3ccccc3C(N)=O)o2)cc1 (centres undefined) | 167 | – | –
16 | CN(C)c1cccc(C2CCCN2Cc2ccc(-c3ccccc3[N+](=O)[O-])o2)c1 (centres undefined) | 5.46 | 44.7 | half-life at 1 µM [3]: 0.78 min; half-life at 1 µM [4]: 0.57 min

Row | Compound | IC50 [1] [µM] | IC50 [2] [µM] | other results
17 | COc1ccc(-c2ccc(CN3CCC[C@@H]3c3ccc(N(C)C)cc3)o2)c([N+](=O)[O-])c1 | 10.4 | 56.4 | –
18 | COc1ccc(C2CCCN2Cc2ccc(-c3ccccc3C(=O)O)o2)cc1 (centres undefined) | 220 | – | –
19 | Cc1cc([N+](=O)[O-])ccc1-c1ccc(CN2CCC[C@@H]2c2ccc(N(C)C)cc2)o1 | 8.11 | 53.1 | –
20 | O=[N+]([O-])c1ccccc1-c1ccc(CN2CCCC2c2ccc(N3CCCCC3)cc2)o1 (centres undefined) | 21.5 | 53.8 | half-life at 1 µM [3]: 1.29 min; half-life at 1 µM [4]: 1.95 min
21 | Cc1cc([N+](=O)[O-])ccc1-c1ccc(CN2CCCC2c2cccc(N(C)C)c2)o1 (centres undefined) | 6.12 | – | half-life at 1 µM [3]: 4.2 min; half-life at 1 µM [4]: 4.7 min
22 | CN(C)Cc1cccc(C2CCCN2Cc2ccc(-c3ccccc3[N+](=O)[O-])o2)c1 (centres undefined) | 54.3 | – | –
23 | COc1cccc(C2CCCN2Cc2ccc(-c3ccccc3[N+](=O)[O-])o2)c1 (centres undefined) | 26.7 | – | –
24 | Cc1ccc(-c2ccc(CN3CCCC3c3ccc(N(C)C)cc3)o2)c([N+](=O)[O-])c1 (centres undefined) | 9.11 | 41.4 | Activity [7]: Non-Toxic
25 | O=[N+]([O-])c1ccccc1-c1ccc(CN2CCCC2c2cccc(N3CCCC3)c2)o1 (centres undefined) | 6.42 | 85.3 | half-life at 1 µM [3]: 5.61 min; half-life at 1 µM [4]: 2.27 min
26 | CN(C)c1ccc(C2CCCN2Cc2ccc(-c3ccc(Cl)cc3[N+](=O)[O-])o2)cc1 (centres undefined) | 21.2 | – | –
27 | COc1ccc(-c2ccc(CN3CCCC3c3ccc(N(C)C)cc3)o2)c([N+](=O)[O-])c1 (centres undefined) | 12.3 | 48.5 | Activity [7]: Non-Toxic
28 | Cc1cc([N+](=O)[O-])ccc1-c1ccc(CN2CCC[C@H]2c2ccc(N(C)C)cc2)o1 | 6.31 | 42.5 | –
29 | COc1ccc(C2CCCN2Cc2ccc(-c3ccc([N+](=O)[O-])cc3)o2)cc1 (centres undefined) | 22.1 | – | –
30 | COc1ccc(C2CCCN2Cc2ccc(-c3ccccc3[N+](=O)[O-])o2)cc1 (centres undefined) | 46.6 | 56.4 | half-life at 1 µM [3]: 0.73 min; half-life at 1 µM [4]: 1.1 min; t1/2 [5]: 1.43 h
31 | COC(=O)Cc1cccc(C2CCCN2Cc2ccc(-c3ccccc3[N+](=O)[O-])o2)c1 (centres undefined) | 53 | – | –
